Literature values as cited in PubChem BioAssay AID1259409 (Chemical Carcinogenesis Research Information System (CCRIS), 2018).

System: rodent chemically induced tumor inhibition, incidence and multiplicity
Assay: CCRIS tumor inhibitor studies

Cc1c(C)c2c(c(C)c1O)CCC(C)(COc1ccc(CC3SC(=O)NC3=O)cc1)O2 (configuration not stated)
tumour outcome (control, treated, inhibition, significance) (Carcinogen: 4-NITROQUINOLINE 1-OXIDE, 56-57-5, Dose [Inhibitor]: 0, 30 PPM IN DIET FOR 22 WK BEGINNING 1 WK POST FINAL CARCINOGEN DOSE (STUDY DURATION: 31 WK), Route [Inhibitor]: ORAL, Species: RAT, Strain/Sex: F344/MALE, Target Tissue: Type of Lesion: TONGUE: PAPILLOMA, Dose [Carcinogen]: 20 PPM IN DRINKING WATER FOR 8 WK): 3/24 (12.5%), 0/19 (0%), 100%, not significant | tumour outcome (control, treated, inhibition, significance) (Carcinogen: 4-NITROQUINOLINE 1-OXIDE, 56-57-5, Dose [Inhibitor]: 0, 30 PPM IN DIET FOR 22 WK BEGINNING 1 WK POST FINAL CARCINOGEN DOSE (STUDY DURATION: 31 WK), Route [Inhibitor]: ORAL, Species: RAT, Strain/Sex: F344/MALE, Target Tissue: Type of Lesion: TONGUE: SQUAMOUS CELL CARCINOMA, Dose [Carcinogen]: 20 PPM IN DRINKING WATER FOR 8 WK): 11/24 (45.8%), 5/19 (26.3%), 42.6%, not significant | tumour outcome (control, treated, inhibition, significance) (Carcinogen: 4-NITROQUINOLINE 1-OXIDE, 56-57-5, Dose [Inhibitor]: 0, 100 PPM IN DIET FOR 22 WK BEGINNING 1 WK POST FINAL CARCINOGEN DOSE (STUDY DURATION: 31 WK), Route [Inhibitor]: ORAL, Species: RAT, Strain/Sex: F344/MALE, Target Tissue: Type of Lesion: TONGUE: PAPILLOMA, Dose [Carcinogen]: 20 PPM IN DRINKING WATER FOR 8 WK): 3/24 (12.5%), 3/20 (15%), -20%, not significant | tumour outcome (control, treated, inhibition, significance) (Carcinogen: 4-NITROQUINOLINE 1-OXIDE, 56-57-5, Dose [Inhibitor]: 0, 100 PPM IN DIET FOR 22 WK BEGINNING 1 WK POST FINAL CARCINOGEN DOSE (STUDY DURATION: 31 WK), Route [Inhibitor]: ORAL, Species: RAT, Strain/Sex: F344/MALE, Target Tissue: Type of Lesion: TONGUE: SQUAMOUS CELL CARCINOMA, Dose [Carcinogen]: 20 PPM IN DRINKING WATER FOR 8 WK): 11/24 (45.8%), 1/20 (5%), 89.1%, p< 0.005 | tumour outcome (control, treated, inhibition, significance) (Carcinogen: AZOXYMETHANE (25843-45-2), Dose [Inhibitor]: 0, 0.05% ADMINISTERED 1 WK AFTER END OF DEXTRAN SODIUM SULFATE TREATMENT FOR 14 WKS (STUDY DURATION: 17 WKS), Route [Inhibitor]: DIET, Species: MOUSE, Strain/Sex: CD-1/FEMALE (10,10)/(10,10), Target Tissue: Type of Lesion: COLON: ADENOCARCINOMA, Dose [Carcinogen]: 10 MG/KG ONCE, Promoter: DEXTRAN SODIUM SULFATE (9011-18-1)): 10/10 (100%), 4/10 (40%), 60%, p<0.01 | tumour outcome (control, treated, inhibition, significance) (Carcinogen: AZOXYMETHANE (25843-45-2), Dose [Inhibitor]: 0, 0.05% ADMINISTERED 1 WK AFTER END OF DEXTRAN SODIUM SULFATE TREATMENT FOR 14 WKS (STUDY DURATION: 17 WKS), Route [Inhibitor]: DIET, Species: MOUSE, Strain/Sex: CD-1/FEMALE (10,10)/(10,10), Target Tissue: Type of Lesion: COLON: ADENOMA, Dose [Carcinogen]: 10 MG/KG ONCE, Promoter: DEXTRAN SODIUM SULFATE (9011-18-1)): 10/10 (100%), 9/10 (90%), 10%, not significant | tumour outcome (control, treated, inhibition, significance) (Carcinogen: N-METHYL-N-NITROSOUREA [684-93-5], Dose [Inhibitor]: 0.15% IN DIET FROM WKS 10 TO 52 (STUDY DURATION: 52 WKS), Route [Inhibitor]: ORAL (DIET), Species: MOUSE, Strain/Sex: PEROXISOME PROLIFERATOR- ACTIVATED RECEPTOR (PPAR GAMMA +/+)/MALE (11,9)/(13,11), Target Tissue: Type of Lesion: STOMACH: CARCINOMA, Dose [Carcinogen]: 240 PPM IN DRINKING WATER ON ALTERNATE WKS OVER A 10 WK PERIOD): (5/9) 56%, (1/11) 9%, 84%, p<0.01 | tumour outcome (control, treated, inhibition, significance) (Carcinogen: N-METHYL-N-NITROSOUREA [684-93-5], Dose [Inhibitor]: 0.15% IN DIET FROM WKS 10 TO 52 (STUDY DURATION: 52 WKS), Route [Inhibitor]: ORAL (DIET), Species: MOUSE, Strain/Sex: PEROXISOME PROLIFERATOR- ACTIVATED RECEPTOR (PPAR GAMMA +/-)/MALE (23,19)/(19,15), Target Tissue: Type of Lesion: STOMACH: CARCINOMA, Dose [Carcinogen]: 240 PPM IN DRINKING WATER ON ALTERNATE WKS OVER A 10 WK PERIOD): (17/19) 90%, (12/15) 80%, 11%, not significant

CC(C)(C)NC(=O)[C@H]1CC[C@H]2[C@@H]3CC[C@H]4NC(=O)C=C[C@]4(C)[C@H]3CC[C@]12C
tumour outcome (control, treated, inhibition, significance) (Carcinogen: N-BUTYL-N-(4-HYDROXYBUTYL)NITROSAMINE, 3817-11-6, Dose [Inhibitor]: 0, 2 MG/KG 2/WK FOR 11 WK BEGINNING POST CARCINOGEN TREATMENT (STUDY DURATION: 21WK), Route [Inhibitor]: ORAL, Species: RAT, Strain/Sex: WISTAR/MALE, Target Tissue: Type of Lesion: URINARY BLADDER: CARCINOMA, Dose [Carcinogen]: 0.05% IN DRINKING WATER FOR 10 WK, Promoter: NONE USED): 15/17 (88%), 12/17 (71%), 19%, not significant | tumour outcome (control, treated, inhibition, significance) (Carcinogen: N-BUTYL-N-(4-HYDROXYBUTYL)NITROSAMINE, 3817-11-6, Dose [Inhibitor]: 0, 2 MG/KG 2/WK FOR 13 WK BEGINNING POST CARCINOGEN TREATMENT (STUDY DURATION: 20WK), Route [Inhibitor]: ORAL, Species: RAT, Strain/Sex: WISTAR/MALE, Target Tissue: Type of Lesion: URINARY BLADDER: CARCINOMA, Dose [Carcinogen]: 0.05% IN DRINKING WATER FOR 7 WK, Promoter: NONE USED): 25/39 (64%), 9/20 (45%), 30%, not significant | tumour outcome (control, treated, inhibition, significance) (Carcinogen: N-BUTYL-N-(4-HYDROXYBUTYL)NITROSAMINE, 3817-11-6, Dose [Inhibitor]: 0, 4 MG/KG 2/WK FOR 13 WK BEGINNING POST CARCINOGEN TREATMENT (STUDY DURATION: 20 WK), Route [Inhibitor]: ORAL, Species: RAT, Strain/Sex: WISTAR/MALE, Target Tissue: Type of Lesion: URINARY BLADDER: CARCINOMA, Dose [Carcinogen]: 0.05% IN DRINKING WATER FOR 7 WK, Promoter: NONE USED): 25/39 (64%), 9/20 (45%), 30%, not significant | tumour outcome (control, treated, inhibition, significance) (Carcinogen: N-BUTYL-N-(4-HYDROXYBUTYL)NITROSAMINE, 3817-11-6, Dose [Inhibitor]: 0, 8 MG/KG 2/WK FOR 13 WK BEGINNING POST CARCINOGEN TREATMENT (STUDY DURATION: 20 WK), Route [Inhibitor]: ORAL, Species: RAT, Strain/Sex: WISTAR/MALE, Target Tissue: Type of Lesion: URINARY BLADDER : CARCINOMA, Dose [Carcinogen]: 0.05% IN DRINKING WATER FOR 7 WK, Promoter: NONE USED): 25/39 (64%), 8/20 (40%), 38%, not significant | tumour outcome (control, treated, inhibition, significance) (Carcinogen: N-METHYL-N-NITROSOUREA, 684-93-5, Dose [Inhibitor]: 0.09 MG/200 G BW/D FOR 2 MO BEGINNING 9.5 MO POST-CARCINOGEN DOSE (STUDY DURATION: 11.5 MO), Route [Inhibitor]: GAVAGE, Species: RAT, Strain/Sex: WISTAR/MALE, Target Tissue: Type of Lesion: PROSTATE: ADENOCARCINOMA, Dose [Carcinogen]: 35 MG/KG BW ONCE AT INITIATION OF STUDY, Promoter: TESTOSTERONE PROPIONATE, 57-85-2): 9/14 (64%), 1/10 (10%), 84%, not determined

C=C1/C(=C\C=C2/CCC[C@]3(C)[C@@H]([C@H](C)CCCC(C)C)CC[C@@H]23)C[C@@H](O)C[C@@H]1O
tumour outcome (control, treated, inhibition, significance) (Carcinogen: N-METHYL-N'-NITRO-N-NITROSOGUANIDINE [70-25-7], Dose [Inhibitor]: 0.04 UG IN MEDIUM CHAIN TRIGLYCERIDE 3X/WK FOR 24 WK BEGINNING IMMEDIATELY POST LAST CARCINOGEN DOSE (STUDY DURATION: 48, Route [Inhibitor]: INTRAGASTRIC, Species: RAT, Strain/Sex: WISTAR WKY/STD/MALE, Target Tissue: Type of Lesion: STOMACH AND SMALL INTESTINE: TUMOR, Dose [Carcinogen]: 0.01% IN DRINKING WATER FOR 24 WK (STUDY DURATION: 48 WK), Promoter: NONE): 16/30 (53%), 8/30 (27%), 49%, p<0.05 | tumour outcome (control, treated, inhibition, significance) (Carcinogen: N-METHYL-N'-NITRO-N-NITROSOGUANIDINE, 70-25-7, Dose [Inhibitor]: 0, 0.04 UG 3/WK FOR 24 WK BEGINNING POST CARCINOGEN TREATMENT (STUDY DURATION: 48 WK), Route [Inhibitor]: GAVAGE, Species: RAT, Strain/Sex: WISTAR/MALE, Target Tissue: Type of Lesion: GASTROINTESTINAL TRACT: TUMOR, Dose [Carcinogen]: 0.01% IN DRINKING WATER FOR 24 WK, Promoter: NONE USED): 16/30 (53%), 8/30 (27%), 49%, p<0.05 | tumour outcome (control, treated, inhibition, significance) (Carcinogen: N-METHYL-N-NITROSOUREA, 684-93-5, Dose [Inhibitor]: 0, 0.04 UG IN 0.2 ML OF MEDIUM CHAIN TRIGLYCERIDE 3/WK FOR 40 WK (STUDY DURATION: 46 WK), Route [Inhibitor]: INTRAGASTRIC, Species: RAT, Strain/Sex: F344/FEMALE, Target Tissue: Type of Lesion: COLON: TUMOR, Dose [Carcinogen]: 1 MG IN 0.5 ML DISTILLED WATER 1/WK FOR 40 WK, Promoter: NONE USED): 21/24 (88%), 12/25 (48%), 45%, p<0.01 | tumour outcome (control, treated, inhibition, significance) (Carcinogen: N-METHYL-N-NITROSOUREA, 684-93-5, Dose [Inhibitor]: 0.04 UG IN 0.2 ML OF MEDIUM CHAIN TRIGLYCERIDE FOLLOWING EACH PROMOTER DOSE 3/WK FOR 48 WK (STUDY DURATION: 50 WK), Route [Inhibitor]: GAVAGE, Species: RAT, Strain/Sex: F344/FEMALE, Target Tissue: Type of Lesion: COLON: ADENOMA OR ADENOCARCINOMA OR LEIOMYOSARCOMA, Dose [Carcinogen]: 2.5 MG IN 0.5 ML DISTILLED WATER TWICE IN 1 WK, Promoter: LITHOCHOLIC ACID, 434-13-9): 15/32 (47%), 6/30 (20%), 57%, p<0.05
